How the values were obtained:
[1] = target: GDP-bound KRAS wild-type protein (Homo sapiens, UniProt P01116); assay: Binding to KRAS by surface plasmon resonance (SPR), Single Cycle Kinetics; settings: SPR, Single Cycle Kinetics, 1:1 binding model; GDP-bound KRAS wild-type protein; read-out: KRAS KD
[2] = target: GDP-bound NRAS wild-type protein (Homo sapiens, UniProt P01111); assay: Binding to NRAS by surface plasmon resonance (SPR), Single Cycle Kinetics; settings: SPR; GDP-bound NRAS wild-type protein vs GDP-bound KRAS wild-type protein; KD ratio class
[3] = target: GDP-bound HRAS wild-type protein (Homo sapiens, UniProt P01112); assay: Binding to HRAS by surface plasmon resonance (SPR), Single Cycle Kinetics; settings: SPR; GDP-bound HRAS wild-type protein vs GDP-bound KRAS wild-type protein; KD ratio class
[4] = tested on: human lung cancer strain NCI-H441;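 also: cell proliferation inhibition after four days measured by CellTiter-Glo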

Sequence of GDP-bound HRAS wild-type protein (P01112 whole entry): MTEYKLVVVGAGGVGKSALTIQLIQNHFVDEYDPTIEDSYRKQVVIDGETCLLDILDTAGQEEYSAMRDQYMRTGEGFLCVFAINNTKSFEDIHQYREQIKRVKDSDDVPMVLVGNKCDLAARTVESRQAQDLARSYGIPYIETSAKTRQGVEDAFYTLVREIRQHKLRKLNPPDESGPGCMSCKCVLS
Sequence of GDP-bound NRAS wild-type protein (P01111 whole entry): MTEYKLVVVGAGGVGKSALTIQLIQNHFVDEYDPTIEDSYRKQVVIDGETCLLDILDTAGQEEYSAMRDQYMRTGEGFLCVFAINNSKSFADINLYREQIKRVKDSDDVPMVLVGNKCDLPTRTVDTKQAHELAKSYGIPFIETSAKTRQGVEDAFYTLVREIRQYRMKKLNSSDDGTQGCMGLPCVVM
Sequence of GDP-bound KRAS wild-type protein (P01116 whole entry): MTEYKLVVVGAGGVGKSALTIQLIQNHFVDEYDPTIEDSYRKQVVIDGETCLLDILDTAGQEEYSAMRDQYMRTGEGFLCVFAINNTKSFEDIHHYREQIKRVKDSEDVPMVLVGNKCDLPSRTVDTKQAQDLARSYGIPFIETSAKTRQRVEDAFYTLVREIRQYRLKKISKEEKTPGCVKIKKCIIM

| SMILES | Kd [1] [nM] | NRAS/KRAS (ratio of KD value for NRAS to KD value for KRAS) [2] | HRAS/KRAS (ratio of KD value for HRAS to KD value for KRAS) [3] | IC50 [4] [nM] |
| --- | --- | --- | --- | --- |
| CC[C@H](C)[C@@H]1NC(=O)[C@H](CC2CC2)N(C)C(=O)C[C@@H](C(=O)N2CCOCC2)N(C)C(=O)[C@H](C2CCCC2)N(C)C(=O)C2(CCCC2)NC(=O)[C@@H]2CCCN2C(=O)[C@H](CCc2ccc(C(F)(F)F)c(Cl)c2)NC(=O)CN(C)C(=O)[C@H](Cc2ccc(C(F)(F)F)cc2)N2C[C@H](C)CC[C@@H](C2=O)N(C)C(=O)CN(C)C1=O [PP1343] | 0.27 | A (a compound having 10 or more and less than 20 is denoted as A) | B (a compound having 3 or more and less than 10 is denoted as B) | 19.3 |
| CC[C@H](C)[C@@H]1NC(=O)[C@H](CC2CC2)N(C)C(=O)C[C@@H](C(=O)N2CCOCC2)N(C)C(=O)[C@H](C2CCCC2)N(C)C(=O)C2(CCC2)NC(=O)[C@@H]2CCCN2C(=O)[C@H](CCc2ccc(C(F)(F)F)c(Cl)c2)NC(=O)CN(C)C(=O)[C@H](Cc2ccc(C(F)(F)F)cc2)N2C[C@H](C)CC[C@@H](C2=O)N(C)C(=O)CN(C)C1=O [PP1344] | 0.14 | B (a compound having 3 or more and less than 10 is denoted as B) | B (a compound having 3 or more and less than 10 is denoted as B) | 16.7 |
| CC[C@H](C)[C@@H]1NC(=O)[C@H](CC2CCC2)N(C)C(=O)C[C@@H](C(=O)N2CCOCC2)N(C)C(=O)[C@H](C2CCCC2)N(C)C(=O)C2(CCC2)NC(=O)[C@@H]2CCCN2C(=O)[C@H](CCc2ccc(C(F)(F)F)c(Cl)c2)NC(=O)CN(C)C(=O)[C@H](Cc2ccc(C(F)(F)F)cc2)N2C[C@H](C)CC[C@@H](C2=O)N(C)C(=O)[C@@H]2CCN2C1=O [PP1345] | 0.71 | A (a compound having 10 or more and less than 20 is denoted as A) | B (a compound having 3 or more and less than 10 is denoted as B) | 34.8 |
| CC[C@H](C)[C@@H]1NC(=O)[C@H](CC2CC2)N(C)C(=O)C[C@@H](C(=O)N(C)C)N(C)C(=O)[C@H](C2CCCC2)N(C)C(=O)C2(CCCC2)NC(=O)[C@@H]2CCCN2C(=O)[C@H](CCc2ccc(C(F)(F)F)c(Cl)c2)NC(=O)CN(C)C(=O)[C@H](Cc2ccc(C(F)(F)F)cc2)N2C[C@H](C)CC[C@@H](C2=O)N(C)C(=O)CN(C)C1=O [PP1346] | 0.084 | B (a compound having 3 or more and less than 10 is denoted as B) | B (a compound having 3 or more and less than 10 is denoted as B) | 7.2 |
| CCO[C@@H]1C[C@H]2C(=O)NC3(CCC3)C(=O)N(C)[C@@H](C3CCCC3)C(=O)N(C)[C@H](C(=O)N3CCOCC3)CC(=O)N(C)[C@@H](CC)C(=O)N[C@@H]([C@@H](C)CC)C(=O)N3CC[C@H]3C(=O)N(C)[C@H]3C[C@@H](C)[C@@H](C)CN(C3=O)[C@@H](Cc3ccc(C(F)(F)F)cc3)C(=O)N(C)CC(=O)N[C@@H](CCc3cc(F)c(C(F)(F)F)c(F)c3)C(=O)N2C1 [PP1351] | 0.13 | A (a compound having 10 or more and less than 20 is denoted as A) | B (a compound having 3 or more and less than 10 is denoted as B) | 12.8 |
| CCO[C@@H]1C[C@H]2C(=O)NC3(CCCC3)C(=O)N(C)[C@@H](C3CCCC3)C(=O)N(C)[C@H](C(=O)N(C)C)CC(=O)N(C)[C@@H](CC)C(=O)N[C@@H]([C@@H](C)CC)C(=O)N(C)CC(=O)N(C)[C@H]3C[C@@H](C)[C@@H](C)CN(C3=O)[C@@H](Cc3ccc(C(F)(F)F)cc3)C(=O)N(C)CC(=O)N[C@@H](CCc3cc(F)c(C(F)(F)F)c(F)c3)C(=O)N2C1 [PP1352] | 0.024 | A (a compound having 10 or more and less than 20 is denoted as A) | B (a compound having 3 or more and less than 10 is denoted as B) | 4.6 |
| CCO[C@@H]1C[C@H]2C(=O)NC3(CCCC3)C(=O)N(C)[C@@H](C3CCCC3)C(=O)N(C)[C@H](C(=O)N3CCOCC3)CC(=O)N(C)[C@@H](CC)C(=O)N[C@@H]([C@@H](C)CC)C(=O)N(C)CC(=O)N(C)[C@H]3C[C@@H](C)[C@@H](C)CN(C3=O)[C@@H](Cc3ccc(C(F)(F)F)cc3)C(=O)N(C)CC(=O)N[C@@H](CCc3cc(F)c(C(F)(F)F)c(F)c3)C(=O)N2C1 [PP1353] | 0.1 | A (a compound having 10 or more and less than 20 is denoted as A) | B (a compound having 3 or more and less than 10 is denoted as B) | 3.7 |
| CCO[C@@H]1C[C@H]2C(=O)NC3(CCC3)C(=O)N(C)[C@@H](C3CCCC3)C(=O)N(C)[C@H](C(=O)N3CCOCC3)CC(=O)N(C)[C@@H](CC)C(=O)N[C@@H]([C@@H](C)CC)C(=O)N(C)CC(=O)N(C)[C@H]3C[C@@H](C)[C@@H](C)CN(C3=O)[C@@H](Cc3ccc(C(F)(F)F)cc3)C(=O)N(C)CC(=O)N[C@@H](CCc3cc(F)c(C(F)(F)F)c(F)c3)C(=O)N2C1 [PP1354] | 0.056 | A (a compound having 10 or more and less than 20 is denoted as A) | B (a compound having 3 or more and less than 10 is denoted as B) | 3.6 |
| CCO[C@@H]1C[C@H]2C(=O)NC3(CCC3)C(=O)N(C)[C@@H](C3CCCC3)C(=O)N(C)[C@H](C(=O)N3CCOCC3)CC(=O)N(C)[C@@H](CC(C)C)C(=O)N[C@@H]([C@@H](C)CC)C(=O)N3CC[C@H]3C(=O)N(C)[C@H]3C[C@@H](C)[C@@H](C)CN(C3=O)[C@@H](Cc3ccc(C(F)(F)F)cc3)C(=O)N(C)CC(=O)N[C@@H](CCc3cc(F)c(C(F)(F)F)c(F)c3)C(=O)N2C1 [PP1355] | 0.16 | A (a compound having 10 or more and less than 20 is denoted as A) | B (a compound having 3 or more and less than 10 is denoted as B) | 10.2 |
| CCO[C@@H]1C[C@H]2C(=O)NC3(CCCC3)C(=O)N(C)[C@@H](C3CCCC3)C(=O)N(C)[C@H](C(=O)N(C)C)CC(=O)N(C)[C@@H](CC3CC3)C(=O)N[C@@H]([C@@H](C)CC)C(=O)N(C)CC(=O)N(C)[C@H]3C[C@@H](C)[C@@H](C)CN(C3=O)[C@@H](Cc3ccc(C(F)(F)F)cc3)C(=O)N(C)CC(=O)N[C@@H](CCc3cc(F)c(C(F)(F)F)c(F)c3)C(=O)N2C1 [PP1356] | 0.047 | B (a compound having 3 or more and less than 10 is denoted as B) | B (a compound having 3 or more and less than 10 is denoted as B) | 3.3 |
| CCO[C@@H]1C[C@H]2C(=O)NC3(CCC3)C(=O)N(C)[C@@H](C3CCCC3)C(=O)N(C)[C@H](C(=O)N3CCOCC3)CC(=O)N(C)[C@@H](CC)C(=O)N[C@@H]([C@@H](C)CC)C(=O)N3CC[C@H]3C(=O)N(C)[C@H]3C[C@@H](C)[C@@H](C)CN(C3=O)[C@@H](Cc3ccc(C(F)(F)F)cc3)C(=O)N(C)CC(=O)N[C@@H](CCc3ccc(C(F)(F)F)c(Cl)c3)C(=O)N2C1 [PP1357] | 0.13 | A (a compound having 10 or more and less than 20 is denoted as A) | B (a compound having 3 or more and less than 10 is denoted as B) | 5.4 |
| CCO[C@@H]1C[C@H]2C(=O)NC3(CCCC3)C(=O)N(C)[C@@H](C3CCCC3)C(=O)N(C)[C@H](C(=O)N(C)C)CC(=O)N(C)[C@@H](CC)C(=O)N[C@@H]([C@@H](C)CC)C(=O)N(C)CC(=O)N(C)[C@H]3C[C@@H](C)[C@@H](C)CN(C3=O)[C@@H](Cc3ccc(C(F)(F)F)cc3)C(=O)N(C)CC(=O)N[C@@H](CCc3ccc(C(F)(F)F)c(Cl)c3)C(=O)N2C1 [PP1358] | 0.03 | A (a compound having 10 or more and less than 20 is denoted as A) | B (a compound having 3 or more and less than 10 is denoted as B) | 4.1 |
| CCO[C@@H]1C[C@H]2C(=O)NC3(CCCC3)C(=O)N(C)[C@@H](C3CCCC3)C(=O)N(C)[C@H](C(=O)N3CCOCC3)CC(=O)N(C)[C@@H](CC)C(=O)N[C@@H]([C@@H](C)CC)C(=O)N(C)CC(=O)N(C)[C@H]3C[C@@H](C)[C@@H](C)CN(C3=O)[C@@H](Cc3ccc(C(F)(F)F)cc3)C(=O)N(C)CC(=O)N[C@@H](CCc3ccc(C(F)(F)F)c(Cl)c3)C(=O)N2C1 [PP1359] | 0.068 | A (a compound having 10 or more and less than 20 is denoted as A) | B (a compound having 3 or more and less than 10 is denoted as B) | 3.2 |
| CCO[C@@H]1C[C@H]2C(=O)NC3(CCC3)C(=O)N(C)[C@@H](C3CCCC3)C(=O)N(C)[C@H](C(=O)N3CCOCC3)CC(=O)N(C)[C@@H](CC)C(=O)N[C@@H]([C@@H](C)CC)C(=O)N(C)CC(=O)N(C)[C@H]3C[C@@H](C)[C@@H](C)CN(C3=O)[C@@H](Cc3ccc(C(F)(F)F)cc3)C(=O)N(C)CC(=O)N[C@@H](CCc3ccc(C(F)(F)F)c(Cl)c3)C(=O)N2C1 [PP1360] | 0.055 | A (a compound having 10 or more and less than 20 is denoted as A) | B (a compound having 3 or more and less than 10 is denoted as B) | 4.9 |

From patent US20240158446A1, “CYCLIC COMPOUND HAVING SELECTIVE INHIBITORY ACTION ON KRAS OVER HRAS AND NRAS” (CHUGAI SEIYAKU KABUSHIKI KAISHA, priority 2021, published 2024)
